According to article PMC4279406, “Simultaneous targeting of PI3Kδ and a PI3Kδ-dependent MEK1/2-Erk1/2 pathway for therapy in pediatric B-cell acute lymphoblastic leukemia” (Oncotarget, 2014):

How the values were obtained:
Raji cells = assay: Cell cycle distribution (PI staining, FACS); format: cell-based, human; conditions: 24 h
Excerpt: Figure 3 PI3Kδ inhibition led to blockade of B cell leukemia cells proliferation via induction of cell cycle arrest and apoptosis Raji cells treated with X-370 for indicated times and at serial diluted concentrations were subjected to Annexin V-FITC/PI staining (A) and PI staining (B) and FACS analysis to show cell apoptosis and cell cycle distribution respectively. (C) X-370 inhibited proliferation of human leukemia primary cells. Freshly isolated human primary mononuclear cells from bone marrow samples of patients were treated with X-370 for 72 h and cell viability was assayed using CCK-8 assay. IC50s of each sample were plotted where 10 μM was assigned to specimens with IC50 >10 μM. Each symbol represents an individual patient sample. […]

[1] = system: PI3Kδ (M-CSF-stimulated THP-1 monocytes); assay: M-CSF-induced Akt phosphorylation in THP-1 cells; format: cell-based; conditions: at 10 nM; M-CSF 50 ng/ml
Description: (§1) In fibroblasts, signals from the insulin-like growth factor 1 (IGF-1) receptor are mediated by PI3Kα, while lysophosphatidic acid (LPA) stimulates G-protein coupled receptor (GPCR) signals via PI3Kβ[26]. After being pre-incubated with X-370, murine embryonic fibroblasts cultured in serum-free medium were stimulated with IGF-1 or LPA. […] Either PI3Kδ or PI3Kγ can be activated in THP-1 monocytes dependent on the stimulating ligand, among which macrophage colony stimulating factor (M-CSF/CSF-1) activates RTK-coupled PI3Kδ, while monocyte chemoattractant protein-1 (MCP-1) activates PI3Kγ [24]. Accordingly, THP-1 cells cultured in serum-free medium were stimulated with MCP-1 or M-CSF in the presence of X-370 and phosphorylated Akt was measured.
(§2) Cell lysates were probed with indicated antibodies. The IC50 values were calculated based on relative band intensity measured with ImageQuant™ TL (GE Healthcare Life Sciences, Piscataway, NJ) (B). Data shown are mean values from three independent experiments. (C, D, E, F) X-370 blocked stimuli-triggered PI3Kδ activation. MEF cells and THP-1 were starved in serum-free medium for 12 h or 4 h respectively and X-370 were added for an additional 1 h treatment following stimulation of IGF-1 at 100 ng/ml for MEF cells (C), LPA at 10 μM for MEF cells (D), MCP-1 at 100ng/ml for THP-1 (E) and M-CSF at 50 ng/ml for THP-1 (F). […]

[2] = system: PI3Kα (IGF-1-stimulated MEF cells); assay: IGF-1-induced Akt phosphorylation in MEF cells; format: cell-based, murine; conditions: up to 0.5 μM; IGF-1 100 ng/ml; 1 h pre-incubation
Description: as §1, §2

O=C(N1CCCC1)N1CCC(n2cnc3c(-n4c(C(F)F)nc5ccccc54)nc(N4CCOCC4)nc32)CC1 [X-370]
cell cycle distribution (Raji cells): increase in cell population in G1 phase | M-CSF-induced Akt phosphorylation [1]: completely blocked | IGF-1-induced Akt phosphorylation [2]: partially inhibited
